Assay results reported in patent US12441691B2 (Cytokinetics, Inc., priority 2020, dated 2025).
Values after ≈ are worked out from the molar mass of the structure shown.

How the values were obtained:
Format in all cases: physicochemical
[1] = Gravimetric vapour sorption (GVS); settings: for GVS mass change / GVS water uptake, mol equivalents of water: between 0 and 90% RH, 25° C.; for XRPD after GVS analysis: form after GVS measurement; for Hygroscopicity by GVS: 0-90% RH
Procedure: Sorption isotherms were obtained using a SMS DVS Intrinsic moisture sorption analyser, controlled by DVS Intrinsic Control software. The sample temperature was maintained at 25° C. by the instrument controls. The humidity was controlled by mixing streams of dry and wet nitrogen, with a total flow rate of 200 ml/min. The relative humidity was measured by a calibrated Rotronic probe (dynamic range of 1.0-100% RH), located near the sample. The weight change, (mass relaxation) of the sample as a function of % RH was constantly monitored by a microbalance (accuracy ±0.005 mg).
Typically, 5-30 mg of sample was placed in a tared mesh stainless steel basket under ambient conditions. The sample was loaded and unloaded at 40% RH and 25° C. (typical room conditions). A moisture sorption isotherm was performed as outlined below (2 scans per complete cycle). The standard isotherm was performed at 25° C. at 10% RH intervals over a 0-90% RH range. Typically, a double cycle (4 scans) was carried out. Data analysis was carried out within Microsoft Excel using the DVS Analysis Suite.
The sample was recovered after completion of the isotherm and re-analysed by XRPD.

[2] = Water determination by Karl Fischer titration (KF)
Procedure: The water content of each sample was measured on a Metrohm 874 Oven Sample Processor at 150° C. with 851 Titrano Coulometer using Hydranal Coulomat AG oven reagent and nitrogen purge. Weighed solid samples were introduced into a sealed sample vial. Approximately 10 mg of sample was used per titration and duplicate determinations were made. […] Data collection and analysis were performed using Tiamo software.

[3] = Thermodynamic aqueous solubility (FaSSIF)
Procedure: Aqueous solubility was determined by suspending sufficient compound in relevant media to give a maximum final concentration of >10 mg/ml of the parent free-form of the compound. The suspension was equilibrated at 37° C., on a Heidolph plate shaker set to 750 rpm for 24 hours. The pH of the saturated solution was then measured, and the suspension filtered through a glass fibre C filter (particle retention 1.2 μm) and diluted appropriately. Quantitation was by HPLC with reference to a standard solution of approximately 0.15 mg/ml in DMSO. Different volumes of the standard, diluted and undiluted sample solutions were injected. The solubility was calculated using the peak areas determined by integration of the peak found at the same retention time as the principal peak in the standard injection.

[4] = Static storage stability of crystalline form by XRPD
[5] = 40° C./75% RH, 7 days (one week)

Compound	GVS mass change [1]	GVS water uptake, mol equivalents of water [1] [mol. equivalents water]	XRPD after GVS analysis [1]	KF water content [2]	XRPD of solid residues ([3]; solid residues after thermodynamic solubility in FaSSIF (37° C.))	solubility thermodynamic at 24 h ([3]; thermodynamic from solid, FaSSIF, 37° C., equilibrated 24 hours) [µg/mL]	Hygroscopicity by GVS [1]	Static storage, XRPD [4, 5]	Static storage, XRPD ([4]; 25° C./97% RH (one week for Form I))
CC[C@H](C)[C@H]1C(=O)Nc2cncc(F)c2CN1C(N)=O [Crystalline Form I, (S)-3-((S)-sec-Butyl)-6-fluoro-2-oxo-1,2,3,5-tetrahydro-4H-pyrido[3,4-e][1,4]diazepine-4-carboxamide]	0.29% Mass change between 0 and 90% RH.	0.04	Unchanged	0.1% water	Form I	460 (≈ 1640 µM)			
CC[C@H](C)[C@H]1C(=O)Nc2cncc(F)c2CN1C(N)=O [Form II]	0.23%		unchanged				slightly hygroscopic	no changes	
CC[C@H](C)[C@H]1C(=O)Nc2cncc(F)c2CN1C(N)=O [Form I]	0.29%	0.04	unchanged	0.1%			slightly hygroscopic	unchanged	unchanged
